Entries after “also recorded” stand apart in the source; their conditions may differ.
Experiment: Long term storage stability of the crystalline form, measured by PXRD
Format: physicochemical
Conditions: stored at 2° C. to 8° C. for one year; solid form checked by PXRD
Procedure: The polymorphs disclosed herein may be characterized by their X-ray powder diffraction (PXRD) patterns. Thus, samples of carfilzomib prepared by processes disclosed herein, including crystalline carfilzomib form M1 and amorphous carfilzomib, were analyzed by PXRD on a BRUKER D-8 DISCOVER powder diffractometer equipped with goniometer of θ/2θ configuration and LYNX EYE detector. The Cu-anode X-ray tube was operated at 40 kV and 30 mA. The experiments were conducted over the 2θ range of 2.0°-50.0°, 0.030° step size, and 0.4 seconds step time.
In some samples, individual impurities were present at levels less than 0.1%.

Q: Which “stability (measured by PXRD)” value does the source give for `CC(C)C[C@H](NC(=O)[C@H](CCc1ccccc1)NC(=O)CN1CCOCC1)C(=O)N[C@@H](Cc1ccccc1)C(=O)N[C@@H](CC(C)C)C(=O)[C@@]1(C)CO1` [crystalline carfilzomib form M1, (2S)-N-((S)-1-((S)-4-methyl-1-((R)-2-methyloxiran-2-yl)-1-oxopentan-2-ylcarbamoyl)-2-phenylethyl)-2-((S)-2-(2-morpholinoacetamido)-4-phenylbutanamido)-4-methylpentanamide] here?
A: exhibited stability; also recorded: stable

Reference: patent publication US20180362580A1, “CRYSTALLINE AND AMORPHOUS FORMS OF CARFILZOMIB” (Mylan Laboratories Limited, priority 2015, published 2018)
